From US20040122209A1, “Products for regulating the degradation of collagen and methods for identifying same” (Shriners Hospital For Children, priority 2002, published 2004)

Key:
Type in all cases: cell-based
[1] = tested on: adult bovine articular chondrocytes; experiment: Collagenase-cleaved type II collagen (COL2-3/4C ELISA) in bovine chondrocyte pellet culture; conditions: preliminary studies; denatured 50° C. for 20 min; data not shown
Description: Adult bovine and human articular cartilage was obtained from metacarpophalangeal joints shortly (within 3 hours) after slaughter and from autopsy within 18 hr of death, respectively. Chondroctyes were released from freshly dissected articular cartilage specimens by sequential enzymatic digestion at 37° C. with trypsin and bacterial collagenase as previously described (Aimes, R. T., 1995). […]
The cell pellets and cartilage explant cultured for various times were digested for the extraction of collagenase-generated neoepitope COL2-3/4Cshort (Billinghurst, R. C. et al., (1997) supra) and denatured type II collagen epitope COL2-3/4m and total type II collagen (Hollander, A. P. et al. (1994a) supra), as previously described: Briefly, the harvested pellets were incubated overnight with 1.0 mg/ml α-chymotrypsin at 37° C. to cleave and solubilize denatured collagen leaving the above neoepitope and epitope intact. […] The COL2-3/4Cshort epitope (hereafter referred to as COL2-3/4Cshort) generated by cleavage of type II collagen by collagenase (Billinghurst, R. C. et al. (1997) supra) and intrachain epitope (COL2-3/4m) exposed in denatured type II collagen (Hollander, A. P. et al. (1994a) supra) were measured in α-chymotrypsin extracts by immunoassay. […] The release of the COL2-3/4C epitope into media was also measured by immunoassay. […]

[2] = tested on: bovine articular cartilage explant; experiment: Collagenase-cleaved type II collagen (COL2-3/4C) in bovine articular cartilage explant culture; conditions: 0.1 and 1 μM from day 0; day 12; one way ANOVA
Description: The cartilages were prepared as previously described (Dahlberg, L. et al. (2000) supra. In brief, the cartilage samples were washed three times with basal culture medium containing Dulbecco's modified Eagle's medium (DMEM; Gibco BRL, Life Technologies, Grand Island, N.Y.) with 20 mM HEAPS buffer (pH 7.4) (Gibco BRL), 45 mM NaHCO3, 100 units/ml penicillin, 100 μg/ml streptomycin and 150 μg/ml gentamycin sulphate (Medium A). Full-depth cartilage slices from a single area, around 20 mm×20 mm were cut vertical to the articular surface and then into cubes of approximately 2 mm×2 mm (5-7 cubes were randomly obtained and wet weights about 50-70 mg/well determined).
The cartilage was assigned to 48 well plate (ca 40 mg/well) and kept in Medium A supplemented with 50 μg/ml ascorbic acid, 0.1 mg/bovine serum albumin, 50 μg/ml insulin, 5.0 μg/ml and 5.0 μg/ml sodium DMEM alone at 37° C. in 95% air/5% CO2. The cartilage was precultured for 2 days and medium was changed at day 0. Thereafter medium (as described in pellet cultures) was replaced every four days. Various CNBr fragments and/or synthetic peptides were freshly added from day 0 at each medium change. Thereafter, cartilage explants and conditioned media were harvested and stored at −20° C.
The cell pellets and cartilage explant cultured for various times were digested for the extraction of collagenase-generated neoepitope COL2-3/4Cshort (Billinghurst, R. C. et al., (1997) supra) and denatured type II collagen epitope COL2-3/4m and total type II collagen (Hollander, A. P. et al. (1994a) supra), as previously described: Briefly, the harvested pellets were incubated overnight with 1.0 mg/ml α-chymotrypsin at 37° C. to cleave and solubilize denatured collagen leaving the above neoepitope and epitope intact. After inhibition of α-chymotrypsin activity with N-tosyl-L-phenelalanine-chloromethyl ketone (Sigma), the samples were centrifuged and the supernatants were removed and boiled for 10 min. The COL2-3/4Cshort epitope (hereafter referred to as COL2-3/4Cshort) generated by cleavage of type II collagen by collagenase (Billinghurst, R. C. et al. (1997) supra) and intrachain epitope (COL2-3/4m) exposed in denatured type II collagen (Hollander, A. P. et al. (1994a) supra) were measured in α-chymotrypsin extracts by immunoassay. The COL2-3/4Cshort epitope is detected in an ELISA assay using a rabbit antibody to the carboxyterminal cleavage neoepitope on the TCA piece generated by primary collagenase cleavage of type II collagen. The release of the COL2-3/4C epitope into media was also measured by immunoassay. Total contents in tissue/cells and media was recorded for COL2-3/^4Cshort epitope. The COL2-3/4m epitope was recorded in cells and tissue where it was concentrated. The remaining residues of pellets and explants were digested overnight with 1.0 mg/ml proteinase K at 56° C. to extract the remaining intact type II collagen and then boiled for 10 min to denature the enzyme. Total type II collagen content in the pellets and explant was determined from the collective amount of COL2-3/4m in both the α-chymotrypsin and proteinase K digests.

[3] = tested on: bovine articular cartilage explant; experiment: Proteoglycan (GAG) content and release in bovine explant culture; conditions: 0.1 and 1 μM from day 0
Description: The cartilages were prepared as previously described (Dahlberg, L. et al. (2000) supra. In brief, the cartilage samples were washed three times with basal culture medium containing Dulbecco's modified Eagle's medium (DMEM; Gibco BRL, Life Technologies, Grand Island, N.Y.) with 20 mM HEAPS buffer (pH 7.4) (Gibco BRL), 45 mM NaHCO3, 100 units/ml penicillin, 100 μg/ml streptomycin and 150 μg/ml gentamycin sulphate (Medium A). Full-depth cartilage slices from a single area, around 20 mm×20 mm were cut vertical to the articular surface and then into cubes of approximately 2 mm×2 mm (5-7 cubes were randomly obtained and wet weights about 50-70 mg/well determined). The cartilage was assigned to 48 well plate (ca 40 mg/well) and kept in Medium A supplemented with 50 μg/ml ascorbic acid, 0.1 mg/bovine serum albumin, 50 μg/ml insulin, 5.0 μg/ml and 5.0 μg/ml sodium DMEM alone at 37° C. in 95% air/5% CO2. The cartilage was precultured for 2 days and medium was changed at day 0. Thereafter medium (as described in pellet cultures) was replaced every four days. Various CNBr fragments and/or synthetic peptides were freshly added from day 0 at each medium change. Thereafter, cartilage explants and conditioned media were harvested and stored at −20° C. In order to show the specificity of the peptide fragments of one embodiment on degradation of type II collagen as compared with proteoglycan, primarily aggrecan, sulphated glycosaminoglycan (GAG) content was determined in both the α-chymotrypsin and proteinase K digests for total proteoglycan (predominantly aggrecan) content in cell pellets, cartilage explants and also in conditioned media. Measurement of release of proteoglycan into media was tested using dimethylene blue dye binding as previously described (Dahlberg, L. et al. (2000) supra).

## denatured type II collagen: denatured type II collagen purified from fetal bovine epiphyseal cartilage
[1]
  difference between pellet cultures treated with and without denatured type II collagen: no significant difference
[2]
  COL2-3/4C content in medium and cartilage: no effect
[3]
  GAG-release into culture media: no effect
  proteoglycan (GAG) contents: no effect
